Laboratory results from ChEMBL document CHEMBL1201862, “PubChem BioAssay data set” (2004).
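In this assay, cells in 96-well plates receive the compound at five concentrations for 48 hours. Endpoints are linearly interpolated between the surrounding concentrations. GI50: concentration for 50% inhibition of growth.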 Calls of active or inactive are those of the source. No stated cut-off is given here; in the data, active = GI50 up to about 1.1 µM and inactive = higher.

Key:
Test in all cases: NCI-60 cell line screen, 48 h
CCRF-CEM = tested on: CCRF-CEM
IGROV-1 = tested on: IGROV-1
RPMI-8226 = tested on: RPMI-8226
OVCAR-5 = tested on: OVCAR-5
SK-OV-3 = tested on: SK-OV-3
SF-295 = tested on: SF-295
U-251 = tested on: U-251
786-0 = tested on: 786-0
SR = tested on: SR
A549 = tested on: A549
SK-MEL-2 = tested on: SK-MEL-2
TK-10 = tested on: TK-10
NCI-H460 = tested on: NCI-H460
SNB-19 = tested on: SNB-19
OVCAR-8 = tested on: OVCAR-8
MDA-MB-231 = tested on: MDA-MB-231
LOX IMVI = tested on: LOX IMVI
UACC-257 = tested on: UACC-257
DU-145 = tested on: DU-145
NCI/ADR-RES = tested on: NCI/ADR-RES
HL-60 = tested on: HL-60
SF-539 = tested on: SF-539
M14 = tested on: M14
OVCAR-4 = tested on: OVCAR-4
SNB-75 = tested on: SNB-75
UACC-62 = tested on: UACC-62
SF-268 = tested on: SF-268
SK-MEL-5 = tested on: SK-MEL-5
HOP-92 = tested on: HOP-92
Hs-578T = tested on: Hs-578T
HCC 2998 = tested on: HCC 2998
A498 = tested on: A498
MCF7 = tested on: MCF7
SW-620 = tested on: SW-620
KM12 = tested on: KM12
EKVX = tested on: EKVX
NCI-H226 = tested on: NCI-H226
HOP-62 = tested on: HOP-62
Malme-3M = tested on: Malme-3M
MDA-MB-435 = tested on: MDA-MB-435
UO-31 = tested on: UO-31
CAKI-1 = tested on: CAKI-1
T47D = tested on: T47D
COLO 205 = tested on: COLO 205
NCI-H522 = tested on: NCI-H522
OVCAR-3 = tested on: OVCAR-3
K562 = tested on: K562
HT-29 = tested on: HT-29
HCT-15 = tested on: HCT-15
PC-3 = tested on: PC-3
MDA-N = tested on: MDA-N
NCI-H23 = tested on: NCI-H23
ACHN = tested on: ACHN
SN12C = tested on: SN12C
BT-549 = tested on: BT-549
HCT-116 = tested on: HCT-116
MOLT-4 = tested on: MOLT-4
RXF 393 = tested on: RXF 393
SK-MEL-28 = tested on: SK-MEL-28

SMILES: CN(/N=C/c1ccccc1C(=O)O)C1=NCCCCN1
- GI50 (CCRF-CEM): > 100 µM (inactive)
- GI50 (IGROV-1): > 100 µM (inactive)
- GI50 (RPMI-8226): > 100 µM (inactive)
- GI50 (OVCAR-5): > 100 µM (inactive)
- GI50 (SK-OV-3): > 100 µM (inactive)
- GI50 (SF-295): > 100 µM (inactive)
- GI50 (U-251): > 100 µM (inactive)
- GI50 (786-0): > 100 µM (inactive)
- GI50 (SR): > 100 µM (inactive)
- GI50 (A549): > 100 µM (inactive)
- GI50 (SK-MEL-2): > 100 µM (inactive)
- GI50 (TK-10): > 100 µM (inactive)
- GI50 (NCI-H460): > 100 µM (inactive)
- GI50 (SNB-19): > 100 µM (inactive)
- GI50 (OVCAR-8): > 100 µM (inactive)
- GI50 (MDA-MB-231): > 100 µM (inactive)
- GI50 (LOX IMVI): > 100 µM (inactive)
- GI50 (UACC-257): > 100 µM (inactive)
- GI50 (DU-145): > 100 µM (inactive)
- GI50 (NCI/ADR-RES): > 100 µM (inactive)
- GI50 (HL-60): > 100 µM (inactive)
- GI50 (SF-539): > 100 µM (inactive)
- GI50 (M14): > 100 µM (inactive)
- GI50 (OVCAR-4): > 100 µM (inactive)
- GI50 (SNB-75): > 100 µM (inactive)
- GI50 (UACC-62): > 100 µM (inactive)
- GI50 (SF-268): > 100 µM (inactive)
- GI50 (SK-MEL-5): > 100 µM (inactive)
- GI50 (HOP-92): > 100 µM (inactive)
- GI50 (Hs-578T): > 100 µM (inactive)
- GI50 (HCC 2998): > 100 µM (inactive)
- GI50 (A498): > 100 µM (inactive)
- GI50 (MCF7): > 100 µM (inactive)
- GI50 (SW-620): > 100 µM (inactive)
- GI50 (KM12): > 100 µM (inactive)
- GI50 (EKVX): > 100 µM (inactive)
- GI50 (NCI-H226): > 100 µM (inactive)
- GI50 (HOP-62): > 100 µM (inactive)
- GI50 (Malme-3M): > 100 µM (inactive)
- GI50 (MDA-MB-435): > 100 µM (inactive)
- GI50 (UO-31): > 100 µM (inactive)
- GI50 (CAKI-1): > 100 µM (inactive)
- GI50 (T47D): > 100 µM (inactive)
- GI50 (COLO 205): > 100 µM (inactive)
- GI50 (NCI-H522): 19.1 µM (inactive)
- GI50 (OVCAR-3): > 100 µM (inactive)
- GI50 (K562): > 100 µM (inactive)
- GI50 (HT-29): > 100 µM (inactive)
- GI50 (HCT-15): > 100 µM
- GI50 (PC-3): > 100 µM (inactive)
- GI50 (MDA-N): > 100 µM (inactive)
- GI50 (NCI-H23): > 100 µM (inactive)
- GI50 (ACHN): > 100 µM (inactive)
- GI50 (SN12C): > 100 µM (inactive)
- GI50 (BT-549): > 100 µM (inactive)
- GI50 (HCT-116): > 100 µM (inactive)
- GI50 (MOLT-4): > 100 µM (inactive)

SMILES: COc1cc2ccccc2c2cc([N+](=O)[O-])oc12
- GI50 (CCRF-CEM): 0.26 µM (active)
- GI50 (IGROV-1): 1.25 µM (inactive)
- GI50 (RPMI-8226): 0.619 µM (active)
- GI50 (OVCAR-5): 3.39 µM (inactive)
- GI50 (SK-OV-3): 0.49 µM (active)
- GI50 (SF-295): 1.39 µM (inactive)
- GI50 (U-251): 1.17 µM (inactive)
- GI50 (786-0): 0.374 µM (active)
- GI50 (SR): 0.0859 µM (active)
- GI50 (A549): 0.294 µM (active)
- GI50 (SK-MEL-2): 0.197 µM (active)
- GI50 (TK-10): 0.173 µM (active)
- GI50 (NCI-H460): 0.183 µM (active)
- GI50 (SNB-19): 0.811 µM (active)
- GI50 (OVCAR-8): 1.9 µM (inactive)
- GI50 (MDA-MB-231): 0.655 µM (active)
- GI50 (LOX IMVI): 0.314 µM (active)
- GI50 (UACC-257): 0.179 µM (active)
- GI50 (DU-145): 0.265 µM (active)
- GI50 (NCI/ADR-RES): 1.43 µM (inactive)
- GI50 (HL-60): 5.26 µM (inactive)
- GI50 (RXF 393): 0.207 µM (active)
- GI50 (SF-539): 0.91 µM (active)
- GI50 (M14): 0.142 µM (active)
- GI50 (OVCAR-4): 3.48 µM (inactive)
- GI50 (SNB-75): 2.62 µM (inactive)
- GI50 (UACC-62): 0.809 µM (active)
- GI50 (SF-268): 0.537 µM (active)
- GI50 (SK-MEL-5): 0.0948 µM (active)
- GI50 (HOP-92): 0.78 µM (active)
- GI50 (Hs-578T): 2.28 µM (inactive)
- GI50 (A498): 0.177 µM (active)
- GI50 (MCF7): 0.35 µM (active)
- GI50 (SW-620): 0.893 µM (active)
- GI50 (KM12): 1.43 µM (inactive)
- GI50 (EKVX): 4.19 µM (inactive)
- GI50 (NCI-H226): 1.11 µM (active)
- GI50 (HOP-62): 3.37 µM (inactive)
- GI50 (Malme-3M): 0.126 µM (active)
- GI50 (MDA-MB-435): 0.214 µM (active)
- GI50 (UO-31): 0.618 µM (active)
- GI50 (CAKI-1): 0.48 µM (active)
- GI50 (T47D): 5.36 µM (inactive)
- GI50 (COLO 205): 0.379 µM (active)
- GI50 (NCI-H522): 0.183 µM (active)
- GI50 (SK-MEL-28): 0.261 µM (active)
- GI50 (OVCAR-3): 1.43 µM (inactive)
- GI50 (K562): 0.319 µM (active)
- GI50 (HT-29): 0.406 µM (active)
- GI50 (HCT-15): 1.03 µM
- GI50 (PC-3): 3.04 µM (inactive)
- GI50 (MDA-N): 0.216 µM (active)
- GI50 (NCI-H23): 1.2 µM (inactive)
- GI50 (ACHN): 0.174 µM (active)
- GI50 (SN12C): 0.927 µM (active)
- GI50 (BT-549): 1.64 µM (inactive)
- GI50 (HCT-116): 0.249 µM (active)
- GI50 (MOLT-4): 0.0792 µM (active)
